Assay results as given in article PMC11594246, “Nitrilase GiNIT from Gibberella intermedia Efficiently Degrades Nitriles Derived from Rapeseed Meal Glucosinolate” (International Journal of Molecular Sciences, 2024).

Tests used:
[1] = biological target: T1, rRrNIT (Rhodococcus rhodochrous, UniProt Q02068); assay: specific activity, Bertholet ammonia assay; assay type: biochemical; conditions: 50 mM substrate, pH 7.5, 45 °C
T1 construct: synthetic gene expressed in E. coli BL21(DE3), purified
T1 sequence (Q02068 1-383): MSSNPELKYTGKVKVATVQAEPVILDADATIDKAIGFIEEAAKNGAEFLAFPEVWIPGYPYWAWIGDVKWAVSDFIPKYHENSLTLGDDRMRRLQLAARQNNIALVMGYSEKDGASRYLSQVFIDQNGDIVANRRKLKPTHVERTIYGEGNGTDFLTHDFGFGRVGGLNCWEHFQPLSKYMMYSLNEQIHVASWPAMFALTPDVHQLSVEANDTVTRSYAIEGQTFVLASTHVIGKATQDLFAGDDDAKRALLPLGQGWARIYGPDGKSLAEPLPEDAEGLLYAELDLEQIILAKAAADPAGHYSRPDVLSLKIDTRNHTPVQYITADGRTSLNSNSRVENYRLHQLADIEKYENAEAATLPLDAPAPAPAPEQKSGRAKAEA

[2] = biological target: T2, rBdNIT (Bradyrhizobium diazoefficiens, UniProt Q89PT3); assay: specific activity, Bertholet ammonia assay; assay type: biochemical; conditions: 50 mM substrate, pH 7.5, 45 °C
T2 construct: gene blr3397; synthetic gene expressed in E. coli BL21(DE3), purified
T2 sequence (Q89PT3 1-321): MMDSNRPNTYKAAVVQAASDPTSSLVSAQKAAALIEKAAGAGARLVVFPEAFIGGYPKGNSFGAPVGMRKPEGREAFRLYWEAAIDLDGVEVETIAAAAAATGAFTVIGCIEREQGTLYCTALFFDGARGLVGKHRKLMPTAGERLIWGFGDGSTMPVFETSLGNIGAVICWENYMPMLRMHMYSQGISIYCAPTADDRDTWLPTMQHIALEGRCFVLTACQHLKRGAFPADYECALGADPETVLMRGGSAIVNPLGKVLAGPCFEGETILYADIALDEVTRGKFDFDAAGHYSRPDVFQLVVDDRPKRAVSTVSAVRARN

| Compound | specific activity, Bertholet ammonia assay [1] | specific activity, Bertholet ammonia assay [2] |
| --- | --- | --- |
| C=CCCC#N [4-pentenenitrile] | rRrNIT from Rhodococcus rhodochrous | rBdNIT from Bradyrhizobium diazoefficiens |
| C=CCC#N [3-butenenitrile] | rRrNIT from Rhodococcus rhodochrous | rBdNIT from Bradyrhizobium diazoefficiens |
